Measurements: patent US11286255B2, “Pyridone carboxylic acid derivative or salt thereof” (WAKUNAGA PHARMACEUTICAL CO., LTD., priority 2017, dated 2022)

Key:
[1] = system: relapsed/refractory acute myeloid leukemia; conditions: phase III trial, in combination with cytarabine, over-sixties; cited from earlier work
human cancer cells [2] = conditions: cited from earlier work
human cancer cells [3] = conditions: cited from earlier work; remark: listed apart in the source
[4] = system: PC-3 (human prostate cancer cell line); assay: In vivo antitumor effect test against PC-3 xenograft; set-up: species or system female Balb/c nu-nu mouse; conditions: PC-3 xenograft in Balb/c nu-nu mice, 20 mg/kg, IV, Q7D ×3, tumor growth inhibition vs vehicle group
Procedure: Test Example 3: In Vivo Antitumor Effect Test Against PC-3 (Human Prostate Cancer Cell Line)
A suspension of cancer cells (1×10^7 cells/mL) prepared in RPMI culture medium (Sigma-Aldrich Co. LLC, R8758) was subcutaneously inoculated in an amount of 200 μL to the right abdomen of each female Balb/c nu-nu mouse (Charles River Laboratories Japan, Inc.). After tumor engraftment, animals having a sufficient tumor size were randomly assigned to an active (compound A or compound 078) group and a control (vehicle) group.
Each test compound (drug) was dissolved at each administration concentration in physiological saline containing 12.5 mM sodium hydroxide. The administration of the compound or a vehicle was started on the day of randomization and continued once a week for 21 days. During the test period, the body weights were measured twice a week throughout the treatment period, and tumors were measured twice a week using calipers. The tumor volumes were measured according to the expression V=L×W^2/2 (V: volume, mm3; L: length, mm; W: width, mm). Using the following expression:
% TGI=100−((Average tumor volume of the treatment group Average tumor volume of the control group)×100), tumor growth inhibition was calculated on the basis of the average tumor volume of the vehicle group.

[5] = system: MV4-11 (human acute myeloid leukemia cell line); assay: In vitro cell growth inhibition test against MV4-11; assay type: cell-based; conditions: 72 h, MV4-11 cells, 3 days culture, WST-8 (Cell Counting Kit-8), 50% growth inhibition concentration
Procedure: Test Example 2: In Vitro Cell Growth Inhibition Test Against MV4-11 (Human Acute Myeloid Leukemia Cell Line)
The compound of the present invention was dissolved at a concentration of 1 mM in dimethyl sulfoxide and further diluted into 10.00, 2.50, 0.625, 0.156, 0.039, 0.0098, 0.0024, and 0.00061 μM (final concentrations) using dimethyl sulfoxide and IMDM (Thermo Fisher Scientific Inc., 12440-053) medium. Each of these dilutions was added at 0.05 mL/well to a 96-well flat-bottomed multiplate. An MV4-11 cell suspension was diluted into […] using IMDM (Thermo Fisher Scientific Inc., 12440-053) medium containing […] (fetal bovine serum, Thermo Fisher Scientific Inc.), and this dilution was added at 0.05 mL/well to the compound-containing 96-well flat-bottomed multiplate mentioned above, and cultured at 37° C. for 3 days in an incubator containing 5% carbon dioxide.
After the culture, Cell Counting Kit-8 (Dojindo Laboratories), which adopts WST-8 as a chromogenic substrate, was added at 10 μL/well, and the cells were cultured under the same conditions as above for 6 hours, followed by measurement of absorbance at 450 nm. A cell survival rate was calculated in terms of 50% growth inhibition concentration (IC50 (μM)) by the least square method with that of a control group defined as 100%.

[6] = system: WI-38 (human fetal lung fibroblast cell line); assay: In vitro cell growth inhibition test against WI-38; assay type: cell-based; conditions: WI-38 normal cells, 12.5 μM compound, 3 days culture, WST-8, control group = 100%
Procedure: Test Example 4: In Vitro Cell Growth Inhibition Test Against WI-38 (Human Fetal Lung Fibroblast Cell Line)
A WI-38 cell suspension was inoculated at 5×10^3 cells/100 μL/well (0.1 mL) to a 96-well flat-bottomed multiplate using DMEM (Sigma-Aldrich Co. LLC, D6429) medium containing 10% FBS (fetal bovine serum, Nichirei Biosciences Inc.), and cultured at 37° C. for 1 day in an incubator containing 5% carbon dioxide. Compound A or the compound of the present invention was dissolved at a concentration of 10 mM in dimethyl sulfoxide and further diluted into 12.5 μM (final concentration) using dimethyl sulfoxide and RPMI-1640 medium. This dilution was added at 0.1 mL/well to the culture plate of the WI-38 cells mentioned above after removal of the medium, and the cells were cultured at 37° C. for 3 days in an incubator containing 5% carbon dioxide.
After the culture, Cell Counting Kit-8 (Dojindo Laboratories), which adopts WST-8 as a chromogenic substrate, was added at 10 μL/well, and the cells were cultured under the same conditions as above for 1 hour, followed by measurement of absorbance at 450 nm. A cell survival rate was calculated with that of a control group defined as 100%.

[7] = system: NCI-H460 (human non-small cell lung cancer cell line); assay: In vitro cell growth inhibition test against NCI-H460; assay type: cell-based; conditions: 72 h, NCI-H460 cells, 3 days culture, WST-8 (Cell Counting Kit-8), 50% growth inhibition concentration
Procedure: Test Example 1: In Vitro Cell Growth Inhibition Test Against NCI-H460 (Human Non-Small Cell Lung Cancer Cell Line)
An NCI-H460 cell suspension was inoculated at 4×10^3 cells/100 μL/well (0.1 mL) to a 96-well flat-bottomed multiplate using RPMI-1640 (Sigma-Aldrich Co. LLC, R8758) medium containing 10% […] (fetal bovine serum, Thermo Fisher Scientific Inc.), and cultured at 37° C. for 1 day in an incubator containing 5% carbon dioxide. The compound of the present invention was dissolved at a concentration of 1 mM in dimethyl sulfoxide and further diluted into 5.00, 2.50, 1.25, 0.63, 0.31, 0.16, 0.078, and 0.039 μM (final concentrations) using dimethyl sulfoxide and RPMI-1640 medium. Each of these dilutions was added at 0.1 mL/well to the culture plate of the NCI-H460 cells mentioned above after removal of the medium, and the cells were cultured at 37° C. for 3 days in an incubator containing 5% carbon dioxide.
After the culture, Cell Counting Kit-8 (Dojindo Laboratories), which adopts WST-8 [2-(2-methoxy-4-nitrophenyl)-3-(4-nitrophenyl)-5-(2,4-disulfophenyl)-2H-tetrazolium monosodium salt] as a chromogenic substrate, was added at 10 μL/well, and the cells were cultured under the same conditions as above for 1 hour, followed by measurement of absorbance at 450 nm. A cell survival rate was calculated in terms of 50% growth inhibition concentration (IC50 (μM)) by the least square method with that of a control group defined as 100%.

| SMILES | therapeutic effect as compared with a placebo group [1] | antitumor effect in vivo (human cancer cells [2]) | antitumor effect in vitro (human cancer cells [3]) | % TGI [4] [%] | IC50 [5] [nM] | Cell survival rate (%) [6] [%] | IC50 [7] [nM] |
| --- | --- | --- | --- | --- | --- | --- | --- |
| CNC1CN(c2ccc3c(=O)c(C(=O)O)cn(-c4nccs4)c3n2)CC1OC (centres unmarked) [1,4-dihydro-7-(3-methoxy-4-methylamino-1-pyrrolidinyl)-4-oxo-1-(2-thiazolyl)-1,8-naphthyridine-3-carboxylic acid] | significant therapeutic effect | excellent antitumor effect | excellent antitumor effect |  |  |  |  |
| CNC1CN(c2ccc3c(=O)c(C(=O)O)cn(-c4nccs4)c3n2)CC1OC (centres unmarked) [Compound A, 1,4-Dihydro-7-(3-methoxy-4-methylamino-1-pyrrolidinyl)-4-oxo-1-(2-thiazolyl)-1,8-naphthyridine-3-carboxylic acid, reference compound] |  |  |  | 21.7 | 10300 | 26 | 370 |
| Cc1cc(N2CC(C(=O)NCC3CCCCO3)C2)nc2c1c(=O)c(C(=O)O)cn2-c1nccs1 (centres unmarked) [Example 078, 5-methyl-7-{3-[(oxan-2-ylmethyl)carbamoyl]azetidin-1-yl}-4-oxo-1-(1,3-thiazol-2-yl)-1,4-dihydro-1,8-naphthyridine-3-carboxylic acid] |  |  |  | 49.2 | 1400 | 68 | 92 |
